Experimental data from the NIST ThermoML archive (doi:10.1016/j.jct.2016.01.012).
± gives the expanded uncertainty stated by the source.

What was measured:
[1] = 100 kPa, Liquid; for viscosity: Falling or rolling sphere viscometry
[2] = refractive index (Na D-line) (dimensionless); settings: 298.15 K; 100 kPa; Liquid; Standard Abbe refractometry
[3] = refractive index (Na D-line) (dimensionless); xn = mol fraction of the nth substance listed; settings: 298.15 K, 100 kPa, Liquid, Standard Abbe refractometry
[4] = xn = mol fraction of the nth substance listed; settings: 100 kPa, Liquid; for electrical conductivity: Direct current cell with electrodes; for viscosity: Falling or rolling sphere viscometry, x2 = 0

Compound CN(C)C(=[NH2+])N(C)C.c1c[n-]cn1 [1,1,3,3-tetramethylguanidinium imidazol-1-ide] has an electrical conductivity ([1]; 298.15 K, Direct current cell with electrodes) of 0.218 ± 0.002 S/m and a refractive index [2] of 1.4943 ± 0.0006.

Work on CN(C)C(=[NH2+])N(C)C.c1c[n-]cn1 [1,1,3,3-tetramethylguanidinium imidazol-1-ide] + CCCCO yielded a refractive index ([3]; x1 = 0.0499) of 1.4074 ± 0.0005, a refractive index ([3]; x1 = 0.1004) of 1.4159 ± 0.0005 and a refractive index ([3]; x1 = 0.1999) of 1.4316 ± 0.0005. It also gave a refractive index ([3]; x1 = 0.2997) of 1.4443 ± 0.0005, a refractive index ([3]; x1 = 0.3985) of 1.4545 ± 0.0005 and a refractive index ([3]; x1 = 0.4997) of 1.4641 ± 0.0005. It also gave a refractive index ([3]; x1 = 0.6499) of 1.4748 ± 0.0006, a refractive index ([3]; x1 = 0.8002) of 1.4839 ± 0.0006 and a refractive index ([3]; x1 = 0.9004) of 1.4888 ± 0.0006. For the same compound, the refractive index ([3]; x1 = 1) was 1.4943 ± 0.0006.

Compound CN(C)C(=[NH2+])N(C)C.c1c[n-]cn1 [1,1,3,3-tetramethylguanidinium imidazol-1-ide] + CCCO has a refractive index ([3]; x1 = 0.0499) of 1.3969 ± 0.0006, a refractive index ([3]; x1 = 0.0999) of 1.4086 ± 0.0005 and a refractive index ([3]; x1 = 0.2002) of 1.428 ± 0.0005. It also gave a refractive index ([3]; x1 = 0.2996) of 1.4423 ± 0.0005, a refractive index ([3]; x1 = 0.4002) of 1.4545 ± 0.0005 and a refractive index ([3]; x1 = 0.4988) of 1.4642 ± 0.0005. For the same compound, the refractive index ([3]; x1 = 0.6264) was 1.4742 ± 0.0006, the refractive index ([3]; x1 = 0.8001) was 1.4848 ± 0.0006 and the refractive index ([3]; x1 = 0.9006) was 1.4895 ± 0.0006. The refractive index ([3]; x1 = 1) was 1.4943 ± 0.0006.

CN(C)C(=[NH2+])N(C)C.c1c[n-]cn1 [1,1,3,3-tetramethylguanidinium imidazol-1-ide] + CCO showed an electrical conductivity ([4]; 298.15 K, x1 = 0.01) of 0.0131 ± 0.001 S/m, an electrical conductivity ([4]; 298.15 K, x1 = 0.0299) of 0.0337 ± 0.001 S/m and an electrical conductivity ([4]; 298.15 K, x1 = 0.0897) of 0.092 ± 0.0013 S/m. It also gave an electrical conductivity ([4]; 298.15 K, x1 = 0.1197) of 0.12 ± 0.0014 S/m, an electrical conductivity ([4]; 298.15 K, x1 = 0.1499) of 0.139 ± 0.0015 S/m and an electrical conductivity ([4]; 298.15 K, x1 = 0.1797) of 0.16 ± 0.0017 S/m. It also gave an electrical conductivity ([4]; 298.15 K, x1 = 0.2001) of 0.166 ± 0.0017 S/m, an electrical conductivity ([4]; 298.15 K, x1 = 0.2195) of 0.173 ± 0.0018 S/m and an electrical conductivity ([4]; 298.15 K, x1 = 0.2398) of 0.179 ± 0.0018 S/m. The electrical conductivity ([4]; 298.15 K, x1 = 0.2602) was 0.185 ± 0.0019 S/m, the electrical conductivity ([4]; 298.15 K, x1 = 0.2996) was 0.199 ± 0.002 S/m and the electrical conductivity ([4]; 298.15 K, x1 = 0.3995) was 0.213 ± 0.002 S/m. The electrical conductivity ([4]; 298.15 K, x1 = 0.5) was 0.221 ± 0.002 S/m, the electrical conductivity ([4]; 298.15 K, x1 = 0.6467) was 0.227 ± 0.002 S/m and the electrical conductivity ([4]; 298.15 K, x1 = 0.801) was 0.229 ± 0.002 S/m. The electrical conductivity ([4]; 298.15 K, x1 = 0.8996) was 0.223 ± 0.002 S/m, the electrical conductivity ([4]; 298.15 K, x1 = 1) was 0.218 ± 0.002 S/m and the refractive index ([3]; x1 = 0.0483) was 1.3799 ± 0.0006. The refractive index ([3]; x1 = 0.0999) was 1.3983 ± 0.0006, the refractive index ([3]; x1 = 0.2003) was 1.4242 ± 0.0006 and the refractive index ([3]; x1 = 0.3001) was 1.4405 ± 0.0005. It also gave a refractive index ([3]; x1 = 0.3999) of 1.4547 ± 0.0005, a refractive index ([3]; x1 = 0.5) of 1.4652 ± 0.0006 and a refractive index ([3]; x1 = 0.643) of 1.4762 ± 0.0006. It also gave a refractive index ([3]; x1 = 0.7966) of 1.4854 ± 0.0006, a refractive index ([3]; x1 = 0.8987) of 1.4903 ± 0.0006 and a refractive index ([3]; x1 = 1) of 1.4943 ± 0.0006.

Work on CN(C)C(=[NH2+])N(C)C.c1c[n-]cn1 [1,1,3,3-tetramethylguanidinium imidazol-1-ide] + CO yielded a refractive index ([3]; x1 = 0.0501) of 1.3631 ± 0.0008, a refractive index ([3]; x1 = 0.1005) of 1.389 ± 0.0006 and a refractive index ([3]; x1 = 0.1957) of 1.4222 ± 0.0006. It also gave a refractive index ([3]; x1 = 0.2953) of 1.4423 ± 0.0005, a refractive index ([3]; x1 = 0.393) of 1.4577 ± 0.0005 and a refractive index ([3]; x1 = 0.5005) of 1.4688 ± 0.0005. For the same compound, the refractive index ([3]; x1 = 0.6431) was 1.4791 ± 0.0006, the refractive index ([3]; x1 = 0.7815) was 1.4865 ± 0.0006 and the refractive index ([3]; x1 = 0.8994) was 1.4915 ± 0.0006. The refractive index ([3]; x1 = 1) was 1.4943 ± 0.0006.

For CCCCO [butan-1-ol], the refractive index [2] was 1.3975 ± 0.0005.

With CCCCO [butan-1-ol] + CN(C)C(=[NH2+])N(C)C.c1c[n-]cn1 the refractive index ([3]; x2 = 0) was 1.3975 ± 0.0005.

CCO [ethanol] showed a refractive index [2] of 1.3598 ± 0.0005.

CCO [ethanol] + CN(C)C(=[NH2+])N(C)C.c1c[n-]cn1 showed a refractive index ([3]; x2 = 0) of 1.3598 ± 0.0005.

With CO [methanol] the refractive index [2] was 1.3267 ± 0.0005.

CO [methanol] + CN(C)C(=[NH2+])N(C)C.c1c[n-]cn1 gave a refractive index ([3]; x2 = 0) of 1.3267 ± 0.0005.

CCCO [propan-1-ol] showed a refractive index [2] of 1.3836 ± 0.0005.

Compound CCCO [propan-1-ol] + CN(C)C(=[NH2+])N(C)C.c1c[n-]cn1 has a refractive index ([3]; x2 = 0) of 1.3836 ± 0.0005.

With O [water] the viscosity ([1]; 293.15 K) was 0.997 ± 0.041 mPa·s, the viscosity ([1]; 298.15 K) was 0.886 ± 0.036 mPa·s and the viscosity ([1]; 303.15 K) was 0.799 ± 0.033 mPa·s. For the same compound, the viscosity ([1]; 308.15 K) was 0.726 ± 0.03 mPa·s, the viscosity ([1]; 313.15 K) was 0.665 ± 0.027 mPa·s and the refractive index [2] was 1.3331 ± 0.0005.

Compound O [water] + CN(C)C(=[NH2+])N(C)C.c1c[n-]cn1 has a viscosity ([4]; 293.15 K) of 0.997 ± 0.041 mPa·s, a viscosity ([4]; 298.15 K) of 0.886 ± 0.036 mPa·s and a viscosity ([4]; 303.15 K) of 0.799 ± 0.033 mPa·s. For the same compound, the viscosity ([4]; 308.15 K) was 0.726 ± 0.03 mPa·s, the viscosity ([4]; 313.15 K) was 0.665 ± 0.027 mPa·s and the refractive index ([3]; x2 = 0) was 1.3331 ± 0.0005.
